This is an account of results in ChEMBL document CHEMBL2169869, “Assay and inhibition of diacylglycerol lipase activity” (Bioorg Med Chem Lett, 2012).

Each structure is given as a SMILES string. pKi: −log10 of the molar value. Active and inactive are the calls of the source. No cut-off for these calls is given here. Some results are limits rather than exact numbers.

The target of experiment [1] is Cannabinoid receptor 2 (Homo sapiens, UniProt P34972). Kind of experiment: Displacement of [3H]CP55940 from human CB2 receptor expressed in HEK293 cells. It counts as cell-based. Background: Loss of bound radioactivity is the signal in a displacement assay; it reports binding, not function.
Sequence of Cannabinoid receptor 2 (Homo sapiens, UniProt P34972) (P34972 whole entry): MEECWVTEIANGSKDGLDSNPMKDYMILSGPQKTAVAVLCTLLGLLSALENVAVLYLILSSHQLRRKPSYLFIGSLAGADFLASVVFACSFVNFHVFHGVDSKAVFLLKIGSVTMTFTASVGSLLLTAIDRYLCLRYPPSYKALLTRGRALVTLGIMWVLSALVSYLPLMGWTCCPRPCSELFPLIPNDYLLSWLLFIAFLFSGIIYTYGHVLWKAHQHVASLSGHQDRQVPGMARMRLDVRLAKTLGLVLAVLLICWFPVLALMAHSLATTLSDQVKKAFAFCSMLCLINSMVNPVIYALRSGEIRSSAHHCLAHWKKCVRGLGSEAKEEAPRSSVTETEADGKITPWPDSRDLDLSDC
In experiment [2] the target is Cannabinoid receptor 2 (Mus musculus, UniProt P47936). Kind of experiment: Displacement of [3H]CP55940 from CB2 receptor in mouse spleen membrane. It counts as cell membranes.
Sequence of Cannabinoid receptor 2 (Mus musculus, UniProt P47936) (P47936 whole entry): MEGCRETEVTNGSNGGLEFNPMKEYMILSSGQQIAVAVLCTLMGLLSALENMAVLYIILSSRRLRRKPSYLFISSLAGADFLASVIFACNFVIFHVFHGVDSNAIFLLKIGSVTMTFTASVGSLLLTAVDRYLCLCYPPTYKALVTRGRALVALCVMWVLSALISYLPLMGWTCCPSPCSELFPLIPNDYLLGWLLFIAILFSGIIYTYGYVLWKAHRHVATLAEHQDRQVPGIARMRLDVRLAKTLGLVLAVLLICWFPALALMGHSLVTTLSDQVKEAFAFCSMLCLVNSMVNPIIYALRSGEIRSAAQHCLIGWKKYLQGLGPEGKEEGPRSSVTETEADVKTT
The next experiment addresses Cannabinoid receptor 1 (Rattus norvegicus, UniProt P20272). It counts as cell membranes, Brain.
Experiment [3] deals with T1, Monoglyceride lipase (Homo sapiens) (UniProt Q99685).
T1 sequence (whole entry): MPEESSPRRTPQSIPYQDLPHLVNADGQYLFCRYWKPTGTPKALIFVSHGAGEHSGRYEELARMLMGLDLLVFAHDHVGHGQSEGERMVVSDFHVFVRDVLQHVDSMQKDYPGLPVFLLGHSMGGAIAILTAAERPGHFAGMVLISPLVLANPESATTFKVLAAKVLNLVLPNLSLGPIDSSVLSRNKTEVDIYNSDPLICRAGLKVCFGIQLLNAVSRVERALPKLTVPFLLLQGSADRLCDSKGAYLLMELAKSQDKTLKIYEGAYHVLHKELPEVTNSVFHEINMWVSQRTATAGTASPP
Kind of experiment: Inhibition of human N-terminal histidine tagged full length MAGL expressed in Escherichia coli at 10 uM by coumarin ester substrate fluorescence assay.

In experiment [4] the target is T2, Fatty-acid amide hydrolase 1 (Rattus norvegicus) (UniProt P97612).
T2 sequence (whole entry): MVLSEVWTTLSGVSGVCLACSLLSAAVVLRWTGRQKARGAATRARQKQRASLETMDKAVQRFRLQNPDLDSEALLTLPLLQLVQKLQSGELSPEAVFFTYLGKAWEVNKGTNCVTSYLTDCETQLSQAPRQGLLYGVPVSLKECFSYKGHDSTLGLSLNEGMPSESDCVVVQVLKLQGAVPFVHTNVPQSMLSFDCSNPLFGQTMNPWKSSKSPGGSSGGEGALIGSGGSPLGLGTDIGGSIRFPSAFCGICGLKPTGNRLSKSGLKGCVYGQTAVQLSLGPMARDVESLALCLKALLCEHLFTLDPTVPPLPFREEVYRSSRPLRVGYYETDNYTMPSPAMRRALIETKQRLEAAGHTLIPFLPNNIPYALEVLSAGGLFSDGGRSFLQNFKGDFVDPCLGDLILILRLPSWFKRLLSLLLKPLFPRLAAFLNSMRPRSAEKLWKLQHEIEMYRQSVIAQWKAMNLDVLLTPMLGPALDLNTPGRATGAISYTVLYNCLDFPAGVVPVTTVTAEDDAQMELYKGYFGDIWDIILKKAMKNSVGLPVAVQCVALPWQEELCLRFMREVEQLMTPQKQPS
Kind of experiment: Inhibition of rat histidine tagged FAAH expressed in Escherichia coli at 10 uM by coumarin ester substrate fluorescence assay.

Sequence of Cannabinoid receptor 1 (P20272 whole entry): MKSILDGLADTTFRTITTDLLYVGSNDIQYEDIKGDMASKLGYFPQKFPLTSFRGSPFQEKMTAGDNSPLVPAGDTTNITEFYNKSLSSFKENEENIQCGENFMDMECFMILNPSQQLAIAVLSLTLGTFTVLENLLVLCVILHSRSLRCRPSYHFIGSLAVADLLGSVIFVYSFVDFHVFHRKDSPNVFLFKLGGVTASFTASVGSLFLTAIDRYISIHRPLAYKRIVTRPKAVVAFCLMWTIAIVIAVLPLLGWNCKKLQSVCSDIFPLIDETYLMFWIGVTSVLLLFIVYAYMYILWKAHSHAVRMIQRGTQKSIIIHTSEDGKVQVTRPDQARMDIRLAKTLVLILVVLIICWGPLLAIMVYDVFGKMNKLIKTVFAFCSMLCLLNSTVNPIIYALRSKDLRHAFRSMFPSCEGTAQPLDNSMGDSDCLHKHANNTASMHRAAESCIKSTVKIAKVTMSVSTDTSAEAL
Description for Cannabinoid receptor 1: Displacement of [3H]CP55940 from CB1 receptor in rat brain synaptosome membrane

As usually defined, the pKi is the Ki on a negative log10 scale, so that one unit is a factor of ten. Read a low pKi as a large Ki. One may read the inhibition as the share of the control response that was lost under treatment. For `CCCCCCCC(=O)NCC(COC)OC(=O)CCCCCCC` (racemic), the pKi on Cannabinoid receptor 2 [1], at Cannabinoid receptor 2 [2] and on Cannabinoid receptor 1 was less than 6.00 in each case. Further, the inhibition entry in experiment [3] and in experiment [4] was “inactive” each time.

Take `COCC(CNC(=O)ON=C1CCCCC1)OC(=O)CCCc1ccc(-c2ccccc2)cc1` (racemic): the pKi at Cannabinoid receptor 2 [1], at Cannabinoid receptor 2 [2] and on Cannabinoid receptor 1 was less than 6.00 in each case. The inhibition result in experiment [3] and in experiment [4] was “inactive” each time.

`CCCCCCCCNC(=O)OCC(COC)OC(=O)NCCCCCCCC` (racemic): the pKi on Cannabinoid receptor 2 [1], on Cannabinoid receptor 2 [2] and at Cannabinoid receptor 1 was less than 6.00 in each case. For the same compound, the inhibition result in experiment [3] and in experiment [4] was “inactive” in each case.

Regarding `CCCCCCCC(=O)OC(CNC(=O)ON=C1CCCCC1)COC` (racemic), the pKi at Cannabinoid receptor 2 [1], at Cannabinoid receptor 2 [2] and on Cannabinoid receptor 1 was less than 6.00 each time. Also, the inhibition entry in experiment [3] and in experiment [4] was “inactive” each time.

Take `CCCCCCCC/C=C\CCCCCCCC(=O)OC(CNC(=O)OCCCCCCCC)COC` (racemic): the pKi at Cannabinoid receptor 2 [1], on Cannabinoid receptor 2 [2] and at Cannabinoid receptor 1 was less than 6.00 each time. Further, the inhibition entry in experiment [3] and in experiment [4] was “inactive” each time.

Regarding `COCC(O)CNC(=O)ON=C1CCCCC1` (racemic), the pKi on Cannabinoid receptor 2 [1] and at Cannabinoid receptor 2 [2] was less than 6.00 throughout. In addition, the inhibition result in experiment [3] and in experiment [4] was “inactive” in each case.

Take `COCC(CNC(=O)CCCc1ccc(-c2ccccc2)cc1)OC(=O)CCCc1ccc(-c2ccccc2)cc1` (racemic): the pKi at Cannabinoid receptor 2 [1], at Cannabinoid receptor 2 [2] and at Cannabinoid receptor 1 was less than 6.00 each time. Moreover, the inhibition entry in experiment [3] and in experiment [4] was “inactive” in each case.

`CCCCCCCCOC(=O)NCC(COC)OC(=O)CCCCCCC` (racemic): the pKi on Cannabinoid receptor 2 [1], at Cannabinoid receptor 2 [2] and at Cannabinoid receptor 1 was less than 6.00 in each case. For the same compound, the inhibition result in experiment [3] and in experiment [4] was “inactive” each time.

As for `CCCCCCCCNC(=O)OCC(COC)OC(=O)CCCCCCC` (racemic), the pKi on Cannabinoid receptor 2 [1], on Cannabinoid receptor 2 [2] and on Cannabinoid receptor 1 was less than 6.00 each time. Besides, the inhibition result in experiment [3] and in experiment [4] was “inactive” each time.

Take `CCCCC/C=C\C/C=C\C/C=C\C/C=C\CCCC(=O)OC(COC)COC(=O)NCCCCCCCC` (racemic): the pKi at Cannabinoid receptor 2 [1], on Cannabinoid receptor 2 [2] and on Cannabinoid receptor 1 was less than 6.00 throughout. Moreover, the inhibition result in experiment [3] and in experiment [4] was “inactive” each time.

Take `CCCCCCCCNC(=O)OCC(OC)O[Si](c1ccccc1)(c1ccccc1)C(C)(C)C` (racemic): the pKi on Cannabinoid receptor 2 [1], on Cannabinoid receptor 2 [2] and on Cannabinoid receptor 1 was less than 6.00 in each case. Further, the inhibition entry in experiment [3] and in experiment [4] was “inactive” each time.

In the case of `CCCCCCCC(=O)OCC(COC)OC(=O)CCCCCCC` (racemic), the pKi at Cannabinoid receptor 2 [1], on Cannabinoid receptor 2 [2] and at Cannabinoid receptor 1 was less than 6.00 in each case. Besides, the inhibition entry in experiment [3] and in experiment [4] was “inactive” throughout.

Consider `CCCCCCCC/C=C\CCCCCCCC(=O)OC(COC)COC(=O)NCCCCCCCC` (racemic), for which the pKi at Cannabinoid receptor 2 [1], at Cannabinoid receptor 2 [2] and on Cannabinoid receptor 1 was less than 6.00 each time. Besides, the inhibition entry in experiment [3] and in experiment [4] was “inactive” in each case.

On to `CCCCCCCC/C=C\CCCCCCCC(=O)OC(CNC(=O)CCCCCCC)COC` (racemic), for which the pKi on Cannabinoid receptor 2 [1], on Cannabinoid receptor 2 [2] and on Cannabinoid receptor 1 was less than 6.00 each time. For the same compound, the inhibition entry in experiment [3] and in experiment [4] was “inactive” each time.

For `CCCCCCCC/C=C\CCCCCCCC(=O)OC(CNC(=O)ON=C1CCCCC1)COC` (racemic), the pKi at Cannabinoid receptor 2 [1], at Cannabinoid receptor 2 [2] and at Cannabinoid receptor 1 was less than 6.00 in each case. The inhibition result in experiment [3] and in experiment [4] was “inactive” throughout.

Regarding `COCC(COC(=O)CCCc1ccc(-c2ccccc2)cc1)OC(=O)CCCc1ccc(-c2ccccc2)cc1` (racemic), the pKi on Cannabinoid receptor 2 [1], at Cannabinoid receptor 2 [2] and on Cannabinoid receptor 1 was less than 6.00 each time. Moreover, the inhibition result in experiment [3] and in experiment [4] was “inactive” throughout.

`CCCCCCCCCCCCCCCCS(=O)(=O)F` registered an inhibition in experiment [4] of 100%.
